Columns and labels:
Rattus norvegicus [1] = details: oral, M/F
Rattus norvegicus [2] = details: oral
Rattus norvegicus [3] = details: for NOAEL: M/F
Canidae = details: chronic, oral, diet, Dog Other
Mus musculus = details: oral, gavage, C57BL/6; for LOAEL / NOAEL: subchronic, duration: 30 days; for LEL / NEL: short-term, duration: 28 days
[4] = reproduction developmental, reduced offspring body weight
[5] = chronic, duration: 2 years, diet, lungs, liver, kidney, thyroid and thyroid hormones
[6] = M/F, reduced body weight gain, skeletal myopathy, slight anemia, bone marrow hyperplasia, increased serum sgot, sgpt, cpk
[7] = duration: 2 years, M/F, liver toxicity
[8] = chronic, duration: 2 years, diet, RBC, ChE inhibition + reduced hemoglobin, hematocrit and RBCs
[9] = F, Cardiovascular: Heart: Heart Weight, Relative + Hepatic: Liver: Liver Weight, Relative + Immune: Multi-Organ: Immunoglobulin M (IgM), Serum…
[10] = M, Cardiovascular: Heart: Heart Weight, Relative + Hepatic: Liver: Liver Weight, Relative + Immune: Multi-Organ: Immunoglobulin M (IgM), Serum…
[11] = M, Hepatic: Liver: Liver Weight, Relative
[12] = F, Liver: Acyl-CoA Oxidase Activity, Liver + Multi-organ: IgM Serum Titer + Spleen: Spleen Weight, Absolute + Spleen: Spleen Weight, Relative
[13] = F, Liver: Liver Weight, Absolute + Liver: Liver Weight, Relative
[14] = M, Liver: Acyl-CoA Oxidase Activity, Liver + Liver: Liver Weight, Absolute + Liver: Liver Weight, Relative
[15] = M, Spleen: CD4-/CD8- Cell Count + Spleen: CD4+/CD8+ Cell Count + Spleen: CD8+ Cell Count
[16] = duration: 2 years, M/F, elevated alkaline phosphatase + Increase in thyroid/body weight ratio + slight increase in liver weights

## O=C1CCCCCN1 [Caprolactam]
Rattus norvegicus [1]; [4]
  LOAEL: 250 mg/kg-day
  NOAEL: 50 mg/kg-day
Rattus norvegicus [2]; subchronic, duration: 90 days, diet, Kidney: Effects
  NOAEL: 50 mg/kg-day

## COC(=O)c1c(Cl)c(Cl)c(C(=O)OC)c(Cl)c1Cl [Chlorthal-dimethyl]
Rattus norvegicus [1]; [5]
  LOAEL: 10 mg/kg-day
  NOAEL: 1 mg/kg-day
Rattus norvegicus [2]; chronic, duration: 2 years, diet, Kidney: Effects + Liver: Effects + Lung: Effects + Thyroid hormones: Effects + Thyroid: Effects
  NOAEL: 1 mg/kg-day

## CCOP(=S)(OCC)Oc1cc(Cl)c(SC)cc1Cl [Chlorthiophos]
Rattus norvegicus [2]; chronic, duration: 2 years, diet, None Observed
  NOAEL: 0.08 mg/kg-day

## CCOP(=S)(OCC)SCCSCC [Disulfoton]
Rattus norvegicus [1]; chronic, duration: 2 years, diet, cholinesterase inhibition, optic nerve degeneration
  LEL: 0.04 mg/kg-day
Rattus norvegicus [3]; chronic, duration: 2 years, oral, diet, F, Fischer 344, neurological
  LOAEL: 0.06 mg/kg-day
Rattus norvegicus [3]; developmental, duration: 364 days, oral, diet, Sprague-Dawley, neurological, developmental
  NOAEL: 0.009 mg/kg-day
Rattus norvegicus [3]; short-term, duration: 3 weeks, inhalation, Wistar TNO/W 74 albino, neurological
  NOAEL: 0.1 mg/m3
Rattus norvegicus [3]; short-term, duration: 3 weeks, inhalation, chamber, Wistar TNO/W 74 albino, neurological
  NOAEL: 0.1 mg/m3
Rattus norvegicus [2]; chronic, duration: 2 years, diet, Blood: Cholinesterase inhibition + Eye: Degeneration
  LOAEL: 0.04 mg/kg-day

## CC(C)C1(C)N=C(c2nc3ccccc3cc2C(=O)O)NC1=O (stereo not drawn) [Imazaquin]
Canidae; [6]
  LEL: 125 mg/kg-day
  NOEL: 25 mg/kg-day

## COc1nn(CSP(=S)(OC)OC)c(=O)s1 [Methidathion]
Canidae; [7]
  LEL: 0.4 mg/kg-day
  NOEL: 0.1 mg/kg-day

## COP(=S)(OC)Oc1ccc([N+](=O)[O-])cc1 [Methyl parathion]
Rattus norvegicus [1]; [8]
  LEL: 0.25 mg/kg-day
  NOEL: 0.025 mg/kg-day
Rattus norvegicus [3]; chronic, duration: 28 months, oral, diet, Sprague-Dawley, hematological
  NOAEL: 0.025 mg/kg-day
Rattus norvegicus [3]; subchronic, duration: 13 weeks, oral, gavage, M, Wistar, neurological
  LOAEL: 0.22 mg/kg-day
Rattus norvegicus [2]; subchronic, duration: 90 days, diet, Erythrocytes: Cholinesterase inhibition
  NOAEL: 0.24 mg/kg-day

## O=C(O)C(F)(F)C(F)(F)C(F)(F)OC(F)(F)F [Perfluoro(4-methoxybutanoic acid)]
Mus musculus; [9]
  LOAEL: 50 mg/kg-day
Mus musculus; [10]
  LOAEL: 50 mg/kg-day
  NOAEL: 5 mg/kg-day
Mus musculus; M, Cardiovascular: Heart: Heart Weight, Relative + Immune: Multi-Organ: Immunoglobulin M (IgM), Serum + Immune: Multi-Organ: Natural Killer (NK…
  NOAEL: 50 mg/kg-day
Mus musculus; [11]
  LOAEL: 50 mg/kg-day
  NOAEL: 5 mg/kg-day

## O=C(O)C(F)(OC(F)(F)C(F)(F)C(F)(F)F)C(F)(F)F (stereo not drawn) [Perfluoro-2-methyl-3-oxahexanoic acid]
Mus musculus; [12]
  LEL: 100 mg/kg-day
  NEL: 10 mg/kg-day
Mus musculus; [13]
  LEL: 10 mg/kg-day
  NEL: 1 mg/kg-day
Mus musculus; F, Spleen: B Cell Count + Spleen: CD4-/CD8- Cell Count + Spleen: CD4+ Cell Count + Spleen: CD4+/CD8+ Cell Count + Spleen: CD8+ Cell Count + …
  NEL: 100 mg/kg-day
Mus musculus; [14]
  LEL: 10 mg/kg-day
  NEL: 1 mg/kg-day
Mus musculus; M, Multi-organ: IgM Serum Titer + Spleen: B Cell Count + Spleen: CD4+ Cell Count + Spleen: Spleen Weight, Absolute + Spleen: Spleen Weight, …
  NEL: 100 mg/kg-day
Mus musculus; [15]
  LEL: 100 mg/kg-day
  NEL: 10 mg/kg-day

## O=C(O)C(F)(F)C(F)(F)OC(F)(F)F [Perfluoro-3-methoxypropanoic acid]
Mus musculus; [9]
  NOAEL: 50 mg/kg-day
Mus musculus; [10]
  NOAEL: 50 mg/kg-day

## Oc1ccccc1 [Phenol]
Rattus norvegicus [2]; developmental, gavage, Fetus: Decreased weight
  NOAEL: 60 mg/kg-day

## CCOP(=S)(OCC)SCSCC [Phorate]
Rattus norvegicus [2]; subchronic, duration: 13 weeks, diet, Cholinesterase: Inhibition
  NOAEL: 0.033 mg/kg-day

## Nc1c(Cl)c(Cl)nc(C(=O)O)c1Cl [Picloram]
Canidae; duration: 6 months, M/F, increased liver weight
  NOEL: 7 mg/kg-day
Canidae; duration: 6 months, M, increased liver weight
  LEL: 35 mg/kg-day

## O=C1C[C@@H]2OCC=C3CN4CC[C@]56c7ccccc7N1[C@H]5[C@H]2[C@H]3C[C@H]46 [Strychnine]
Rattus norvegicus [1]; subchronic, toxicity/histopathology
  LOAEL: 2.5 mg/kg-day
Rattus norvegicus [2]; short-term, duration: 28 days, gavage, Unspecified: Histopathology + Unspecified: Toxicity
  LOAEL: 2.5 mg/kg-day

## Cc1[nH]c(=O)n(C(C)(C)C)c(=O)c1Cl [Terbacil]
Canidae; [16]
  LEL: 6.25 mg/kg-day
  NOEL: 1.25 mg/kg-day

From EPA's ToxValDB 9.5
